No end group written: not given here.
experiment: Freeze–thaw stability of model peptides, UPLC-MS; format: physicochemical; settings: 150 µg/mL in PBS, two freeze–thaw cycles, fivefold on three consecutive days
Experimental: A UPLC-MS system was used for the development and validation of the stability-indicating analytical method. The apparatus, column, flow rate, mobile phase A, mobile phase B, mass acquisition, and sample run time were: UPLC UltiMate 3000 RSLC System (Thermo Fisher Scientific, Waltham, MA, USA) coupled to a Q Exactive Orbitrap Mass Spectrometers (Thermo Fisher Scientific, Waltham, MA, USA); Acquity UPLC Peptide CSH C18, 130 Å, 1.7 µm, 2.1 mm × 150 mm (Waters Corporation, Milford, MA, USA); 0.40 mL/min; 0.013% ammonium formate and 0.1% formic acid dissolved in ultrapure water (pH 2.8); 0.013% ammonium formate and 0.1% formic acid dissolved in a mixture of 0.495:0.495:0.10 methanol, acetonitrile, and ultrapure water; masses scanned from 300.0–1900.0 m/z; 15 min; respectively. The mobile phase gradient started at t0 min with 98% of mobile phase A that was gradually adjusted to 40% at t9 min. At t9.1 min, mobile phase A was set at 2% till t11.1 min. At t11.2 min, mobile phase A was set at 98% until the end of the sample run time.
For each peptide, six stock concentrations in the range of 5–225 µg/mL dissolved in PBS were made. The linear relationship of the calibration curves was investigated by regression analysis. The linear correlation coefficient (R^2), goodness of fit, and lack of fit were analyzed. For the accuracy and precision tests, samples of 50 µg/mL, 150 µg/mL, and 225 µg/mL were analyzed in triplicate on three consecutive days to determine the closeness of agreement of the measurements compared to the analyzed concentrations (accuracy % bias) and repeated experiments (relative standard deviations (RSD)). For the sensitivity test, peptide samples at 5 µg/mL were analyzed in triplicate on three consecutive days and the signal-to-noise (S/N) ratio was calculated from representative chromatograms. For the freeze–thaw experiment, samples at 150 µg/mL for each of the three peptides were prepared and analyzed in fivefold on three consecutive days after each sample was subjected to two freeze–thaw cycles before the analysis was initiated.

Sequence | Freeze–thaw stability, average bias
SAMEKRGARETQQQRKRVFRGRGVNSAK [FRM001P11] | 1%
SVTNTSLAHELWKVPLHLKTSLLRPAHLRD [FRM001P02] | 8%
VTLEERLDKACEPGVDYDGQTGVIHFQPRG [FRM001P23] | 4%
